# Reference: US20120198764A1, “METHOD FOR REDUCING PHYTOTOXICITY” (Ishihara Sangyo Kaisha, Ltd., priority 2009, published 2012)
# Read-outs that look alike come from different tables or passages of the source.
# Assays:
# Conditions in all cases: in vivo
# [1] = system: bentgrass (breed: pencross); assay: Test Example 7: pot test, copper phthalocyanine or Prussian Blue applied 1 day before flazasulfuron
# Procedure: (§1) On 13th day after the treatment with flazasulfuron, the state of growth of bentgrass was visually observed and evaluated in accordance with growth inhibition rate (%)=0 (equivalent to the non-treated area) to 100 (complete kill), and thereby the results shown in Table 1 were obtained. Further, the test was carried out in duplicate.
# (§2) 1/1,000,000 ha pots were prepared, as the present invention area, comparative area and non-treated area, soil was put into them, and bentgrass (breed: pencross) in sod state was planted thereon. After the bentgrass root-took on soil, a spray liquid was prepared by diluting copper phthalocyanine or Prussian Blue with water to 1,000 times or 500 times, and the bentgrass in the present invention area was subjected to foliar treatment with the spray liquid in an amount of about 1,000 L/ha by a small spray gun. After 1 day, a spray liquid was prepared by diluting a predetermined amount (corresponding to flazasulfuron: 5 g a.i./ha) of SHIBAGEN DF (tradename, the same as in Test Example 1) with water containing 0.02 wt % of Kusa-rino (tradename, the same as in Test Example 1), and the bentgrass in the present invention area and comparative area were subjected to foliar treatment with the spray liquid in an amount of about 2,000 L/ha by a small spray gun.
# On 8th day after the treatment with flazasulfuron, the state of growth of bentgrass was evaluated in the same manner as in Test Example 1, and thereby the results shown in Table7 were obtained. Further, the test was carried out in duplicate.
# [2] = system: bentgrass (breed: pencross); assay: Test Example 1: pot test, TurfGreen BG applied 7 days before flazasulfuron
# Procedure: 1/300,000 ha pots were prepared, as the present invention area, comparative area and non-treated area, soil was put into them, and bentgrass (breed: pencross) in sod state (state of mat) was planted thereon. With respect to the bentgrass in the present invention area, after the bentgrass root-took on soil, a spray liquid was prepared by diluting a colorant for turfgrass (tradename: TurfGreen BG (containing chlorinated copper phthalocyanine), manufactured by Nisso Green Co., Ltd.) with water to 50 times, and the bentgrass was subjected to foliar treatment with the spray liquid in an amount of about 2,000 L/ha by a small spray gun. […]
# On 13th day after the treatment with flazasulfuron, the state of growth of bentgrass was visually observed and evaluated in accordance with growth inhibition rate (%)=0 (equivalent to the non-treated area) to 100 (complete kill), and thereby the results shown in Table 1 were obtained. […]
# [3] = system: bentgrass (breed: pencross); assay: Test Example 2: pot test, TurfGreen BG applied 1 day after flazasulfuron
# Procedure: as §1
# as §2, with “With respect” for “After the bentgrass root-took on soil, a spray liquid was prepared by diluting copper phthalocyanine or Prussian Blue with water”, “to” for “to 1,000 times or 500 times, and”, “and comparative area, after” for “was subjected to foliar treatment with”, “bentgrass root-took on soil,” for “spray liquid in an amount of about 1,000 L/ha by a small spray gun. After 1 day,”, “gun. […]” for “gun.”
# On 7th day after the treatment with TurfGreen BG, the state of growth of bentgrass was evaluated in the same manner as in Test Example 1, and thereby the results shown in Table 2 were obtained. […]
# [4] = system: bentgrass (breed: pencross); assay: Test Example 3: ground plot test, TurfGreen BG applied 1 or 3 days before flazasulfuron
# Procedure: as §1
# (§3) Among bentgrass (breed: pencross) planted in sod state on ground in 0.5 m^2 (5.0×10^−5 ha, 1 m×0.5 m) in the present invention area A, the present invention area B, comparative area and non-treated area, the bentgrass in the present invention area A, the present invention area B and comparative area were subjected to foliar treatment with a spray liquid prepared by diluting a predetermined amount (corresponding to flazasulfuron: 6.25 g a.i./ha) of SHIBAGEN DF (tradename, the same as in Test Example 1) with water containing 0.02 wt % of Kusa-rino (tradename, the same as in Test Example 1) in an amount of about 2,000 L/ha by a hand portable pump sprayer. […]
# On 14th day after the treatment with flazasulfuron, the state of growth of the bentgrass was evaluated in the same manner as in Test Example 1, and thereby the results shown in Table 3 were obtained. […]
# [5] = system: bentgrass (breed: pencross); assay: Test Example 4: ground plot test, TurfGreen BG applied 7 days after flazasulfuron
# Procedure: as §1
# as §3, with “planted on ground” for “planted”, “state” for “state on ground”, “m) of” for “m) in”, “invention area,” for “invention area A, the present invention area B,”, “the bentgrasses” for “the bentgrass”, “area” for “area A, the present invention area B”
# Prior to the treatment with TurfGreen BG or on 7th day after the treatment with TurfGreen BG, the state of growth of bentgrass was evaluated in the same manner as in Test Example 1, and thereby the results shown in Table 4 were obtained. […]
# [6] = system: bentgrass (breed: pencross); assay: Test Example 5: pot test, colorants applied 1 day before flazasulfuron
# Procedure: as §1
# 1/1,000,000 ha pots were prepared, as the present invention area, comparative area and non-treated area, soil was put into them, and bentgrass (breed: pencross) in sod state was planted thereon. After the bentgrass root-took on soil, a spray liquid was prepared by diluting a colorant for turfgrass (tradename: Green Way (pigment containing metal ions), manufactured by Otsuka Chemical Co., Ltd.), (tradename: Green Way Sayaka (pigment containing metal ions), manufactured by Otsuka Chemical Co., Ltd.) or (tradename: Clear Green L (copper phthalocyanine), manufactured by Ohkawaya Co., Ltd.) with water to 50 times, and the bentgrass in the present invention area was subjected to foliar treatment with the spray liquid in an amount of about 2,000 L/ha by a small spray gun. […]
# On 7th day after the treatment with flazasulfuron, the state of growth of bentgrass was evaluated in the same manner as in Test Example 1, and thereby the results shown in Table 5 were obtained. […]
# [7] = system: bentgrass (breed: pencross); assay: Test Example 6: ground plot test, FULLGREEN S applied 1 day before or after flazasulfuron
# Procedure: as §1
# as §3, with “planted on ground” for “planted”, “state” for “state on ground”, “m) of” for “m) in”, “a small spray gun.” for “a hand portable pump sprayer.”
# On 7th day after the treatment with flazasulfuron, the state of growth of bentgrass was evaluated in the same manner as in Test Example 1, and thereby the results shown in Table 6 were obtained. […]
# [8] = system: bentgrass (breed: pencross); assay: Test Example 8: pot test, Prussian Blue applied 5 days after flazasulfuron
# Procedure: as §1
# as §2, with “soil,” for “soil, a spray liquid was prepared by diluting copper phthalocyanine or Prussian Blue with water to 1,000 times or 500 times, and the bentgrass in the present invention area was subjected to foliar treatment with the spray liquid in an amount of about 1,000 L/ha by a small spray gun. After 1 day,”, “gun. […]” for “gun.”
# On 7th day after the treatment with Prussian Blue, the state of growth of bentgrass was evaluated in the same manner as in Test Example 1, and thereby the results shown in Table 8 were obtained. […]
# [9] = system: bentgrass (breed: pencross)
# Procedure: as §1
# as §2, with “Pigment Green 7” for “copper phthalocyanine or Prussian Blue”, “125” for “1,000 times or 500”, “10” for “5”
# On 7th day after the treatment with flazasulfuron, the state of growth of bentgrass was evaluated in the same manner as in Test Example 1, and thereby the results shown in Table 9 were obtained. Further, the test was carried out in triplicate.
Molecule,"State of growth of bentgrass, Growth inhibition rate (%) [1]","phytotoxicity due to flazasulfuron, compared with comparative area [1]","State of growth of bentgrass, Growth inhibition rate (%) [2]","State of growth of bentgrass, Growth inhibition rate (%) [3]","State of growth of bentgrass, Growth inhibition rate (%) [4]","State of growth of bentgrass, Growth inhibition rate (%) [5]","State of growth of bentgrass, Growth inhibition rate (%) [6]","State of growth of bentgrass, Growth inhibition rate (%) [7]","State of growth of bentgrass, Growth inhibition rate (%) [8]","State of growth of bentgrass, Growth inhibition rate (%) [9]","phytotoxicity due to flazasulfuron, compared with comparative area [9]"
[Cu+2].c1ccc2c(c1)-c1nc-2nc2[n-]c(nc3nc(nc4[n-]c(n1)c1ccccc41)-c1ccccc1-3)c1ccccc21 [copper phthalocyanine],40%,reduced,,,,,,,,,
COc1cc(OC)nc(NC(=O)NS(=O)(=O)c2ncccc2C(F)(F)F)n1 [flazasulfuron],55%,,50%,48%,40%,30%,53%,31%,54%,56%,
Pigment Green 7,,,,,,,,,,50%,reduced
